Assay results: BigSolDB 2.1

CCC[C@@H]1CC(=O)N([C@@H](CC)C(N)=O)C1
solubility (mole fraction)
Settings	278.15 K	283.15 K	288.15 K	293.15 K	298.15 K	303.15 K	308.15 K	313.15 K	318.15 K	323.15 K
in MTBE	0.00794	0.0117	0.0181	0.0331	0.0496	0.078	0.11	0.175	0.291	0.419
in diisopropyl ether	0.00075	0.00108	0.00235	0.00327	0.00513	0.00618	0.00879	0.0143	0.0205	0.0341
in ethanol	0.189	0.226	0.258	0.297	0.328	0.371	0.415	0.466	0.523	0.576
in ethyl acetate	0.0369	0.0541	0.0769	0.113	0.152	0.201	0.275	0.332	0.418	0.499
in ethyl formate	0.0887	0.113	0.142	0.18	0.224	0.279	0.33	0.393	0.465	0.519
in isopropanol	0.127	0.163	0.186	0.219	0.25	0.287	0.341	0.392	0.445	0.51
in isopropyl acetate	0.0322	0.0429	0.0625	0.0768	0.109	0.154	0.206	0.287	0.365	0.455
in methanol	0.234	0.275	0.309	0.337	0.367	0.416	0.445	0.497	0.557	0.61
in n-butyl acetate	0.0279	0.0337	0.0428	0.0577	0.0846	0.108	0.161	0.21	0.293	0.412
in n-heptane	1.02e-05	1.86e-05	3.36e-05	4.77e-05	8.17e-05	0.000113	0.000168	0.000249	0.000335	0.000493
in n-hexane	4.1e-05	6.64e-05	8.92e-05	0.000133	0.00018	0.000239	0.000324	0.000413	0.000524	0.000739
in n-propanol	0.137	0.17	0.204	0.245	0.28	0.318	0.365	0.412	0.475	0.52
